Laboratory results: the NIST ThermoML archive (doi:10.1016/j.jct.2013.05.003)
Numbers after ± are expanded uncertainties.

Test: xn = mol fraction of the nth substance listed
Conditions: 101.3 kPa, Liquid, fixed-path interferometer

CCOCCCN [3-ethoxy-1-propanamine] + O
speed of sound [m/s]
Conditions | 283.15 K | 288.15 K | 293.15 K | 298.15 K | 303.15 K
x1 = 0.0001081 | 1448.8 ± 1.3 | 1466.3 ± 1.3 | 1483.4 ± 1.3 | 1497.2 ± 1.2 | 1509.6 ± 1.2
x1 = 0.0003191 | 1450 ± 1.3 | 1467.4 ± 1.3 | 1484.5 ± 1.3 | 1498 ± 1.2 | 1510.4 ± 1.2
x1 = 0.0006252 | 1451.8 ± 1.3 | 1469.1 ± 1.3 | 1486 ± 1.3 | 1499.4 ± 1.2 | 1511.6 ± 1.2
x1 = 0.000707 | 1452.2 ± 1.3 | – | – | – | –
x1 = 0.0009424 | 1453.7 ± 1.3 | 1470.9 ± 1.3 | 1486.9 ± 1.3 | 1500.9 ± 1.2 | 1512.8 ± 1.2
x1 = 0.001046 | 1454.2 ± 1.3 | – | – | – | –
x1 = 0.001284 | 1455.6 ± 1.3 | 1472.6 ± 1.3 | 1489.1 ± 1.3 | 1502.2 ± 1.2 | 1514.2 ± 1.2
x1 = 0.001947 | 1459.5 ± 1.3 | 1476.2 ± 1.3 | 1491.7 ± 1.3 | 1505.4 ± 1.2 | 1516.8 ± 1.2
x1 = 0.002912 | 1465.1 ± 1.3 | 1481.3 ± 1.3 | 1496.4 ± 1.3 | 1509.6 ± 1.2 | 1520.7 ± 1.2
x1 = 0.00392 | 1470.9 ± 1.3 | 1486.6 ± 1.3 | 1501.2 ± 1.3 | 1514 ± 1.2 | 1524.7 ± 1.2
x1 = 0.005098 | 1477.6 ± 1.3 | 1492.8 ± 1.3 | 1506.8 ± 1.2 | 1519 ± 1.2 | 1529.2 ± 1.2
x1 = 0.007456 | 1491 ± 1.3 | 1505 ± 1.2 | – | – | –
x1 = 0.00981 | 1504 ± 1.2 | 1516.7 ± 1.2 | 1528.6 ± 1.2 | 1538.8 ± 1.2 | 1547.2 ± 1.2
x1 = 0.0148 | 1530.2 ± 1.2 | 1540.6 ± 1.2 | 1550.3 ± 1.2 | 1558.4 ± 1.2 | 1565 ± 1.2
x1 = 0.01956 | 1554 ± 1.2 | 1562.9 ± 1.2 | 1569.7 ± 1.2 | 1576 ± 1.2 | 1580.7 ± 1.2
x1 = 0.02832 | 1594.2 ± 1.2 | 1599 ± 1.2 | 1602.1 ± 1.2 | 1604.7 ± 1.2 | 1606.4 ± 1.2
x1 = 0.03914 | 1636.5 ± 1.3 | 1636.7 ± 1.3 | 1635.3 ± 1.3 | 1633.7 ± 1.2 | 1631.8 ± 1.3
x1 = 0.05082 | 1672.1 ± 1.3 | 1668 ± 1.3 | 1662.5 ± 1.3 | 1657.2 ± 1.3 | 1651.3 ± 1.3
x1 = 0.06674 | 1704.8 ± 1.3 | 1695.7 ± 1.3 | 1685.7 ± 1.3 | 1676.2 ± 1.3 | 1666.3 ± 1.3
x1 = 0.09536 | 1724 ± 1.3 | 1709.3 ± 1.3 | 1695.7 ± 1.3 | 1681.6 ± 1.3 | 1667.7 ± 1.3
x1 = 0.1209 | 1715.9 ± 1.3 | 1700.4 ± 1.3 | 1684.2 ± 1.3 | 1668.3 ± 1.3 | 1653.1 ± 1.3
x1 = 0.1452 | 1699.3 ± 1.3 | 1682.6 ± 1.3 | 1666.7 ± 1.3 | 1650.2 ± 1.3 | 1633.9 ± 1.3
x1 = 0.1844 | 1669 ± 1.3 | 1651.6 ± 1.3 | 1634.3 ± 1.3 | 1617.3 ± 1.3 | 1600.4 ± 1.3
x1 = 0.2121 | 1645.8 ± 1.4 | 1627.7 ± 1.3 | 1610.5 ± 1.3 | 1593.4 ± 1.3 | 1576.1 ± 1.3
x1 = 0.2438 | 1623.7 ± 1.4 | 1604.4 ± 1.3 | 1587.9 ± 1.3 | 1569.9 ± 1.3 | 1552.3 ± 1.3
x1 = 0.2923 | 1593 ± 1.4 | 1575 ± 1.3 | 1557.5 ± 1.3 | 1539.4 ± 1.3 | 1521.5 ± 1.3
x1 = 0.361 | 1556.4 ± 1.4 | 1535.7 ± 1.4 | 1518.2 ± 1.4 | 1499.2 ± 1.4 | 1480.9 ± 1.3
x1 = 0.4369 | 1524.2 ± 1.4 | 1504.5 ± 1.4 | 1485.9 ± 1.4 | 1466.9 ± 1.4 | 1448.1 ± 1.4
x1 = 0.493 | – | – | 1461.7 ± 1.4 | 1442.5 ± 1.4 | –
x1 = 0.4937 | 1501.5 ± 1.4 | 1481 ± 1.4 | 1461.8 ± 1.4 | 1442.6 ± 1.4 | 1423.4 ± 1.4
x1 = 0.5513 | 1482.2 ± 1.4 | 1461.9 ± 1.4 | 1442.2 ± 1.4 | 1422.7 ± 1.4 | 1403.3 ± 1.4
x1 = 0.6214 | 1462.5 ± 1.4 | 1441.5 ± 1.4 | 1421.8 ± 1.4 | 1402 ± 1.4 | 1382.3 ± 1.4
x1 = 0.6775 | 1448.2 ± 1.5 | 1426.9 ± 1.5 | 1407.3 ± 1.5 | 1386.7 ± 1.4 | 1366.7 ± 1.4
x1 = 0.6943 | 1444.5 ± 1.5 | 1423.4 ± 1.5 | 1402.9 ± 1.5 | 1383.1 ± 1.5 | 1363.1 ± 1.5
x1 = 0.7458 | 1432.9 ± 1.5 | 1411.3 ± 1.5 | 1391.1 ± 1.5 | 1370.8 ± 1.5 | 1350.5 ± 1.5
x1 = 0.7733 | 1427.7 ± 1.5 | – | 1385.3 ± 1.5 | 1365.2 ± 1.5 | 1344.8 ± 1.5
x1 = 0.7947 | 1422.9 ± 1.5 | 1401.1 ± 1.5 | 1380.6 ± 1.5 | 1360.2 ± 1.5 | 1339.8 ± 1.5
x1 = 0.8276 | 1416.8 ± 1.5 | 1395.1 ± 1.5 | 1374.1 ± 1.5 | 1353.6 ± 1.5 | 1333.2 ± 1.5
x1 = 0.8488 | 1412.3 ± 1.5 | 1390.7 ± 1.5 | – | 1349.3 ± 1.5 | –
x1 = 0.8744 | 1408.1 ± 1.6 | – | 1365.1 ± 1.5 | 1344.6 ± 1.5 | 1324 ± 1.5
x1 = 0.8993 | 1403 ± 1.6 | 1381.5 ± 1.6 | 1360 ± 1.6 | 1339.3 ± 1.6 | 1319.2 ± 1.5
x1 = 0.9189 | 1399.9 ± 1.6 | 1378 ± 1.6 | 1356.7 ± 1.6 | 1335.6 ± 1.6 | 1315.1 ± 1.6
x1 = 0.9349 | – | 1375 ± 1.6 | – | – | –
x1 = 0.9411 | 1395.9 ± 1.6 | – | 1352.4 ± 1.6 | 1331.8 ± 1.6 | 1311.1 ± 1.6
x1 = 0.9436 | – | 1373.5 ± 1.6 | – | – | –
x1 = 0.9486 | 1394.8 ± 1.6 | – | 1351.3 ± 1.6 | 1330.7 ± 1.6 | 1309.8 ± 1.6
x1 = 0.9551 | – | 1371.3 ± 1.6 | – | – | –
x1 = 0.9601 | 1392.6 ± 1.6 | 1370.4 ± 1.6 | – | – | –
x1 = 0.9613 | – | – | 1349 ± 1.6 | 1327.9 ± 1.6 | 1307.3 ± 1.6
x1 = 0.9746 | – | 1367.5 ± 1.6 | – | 1325.7 ± 1.6 | 1304.7 ± 1.6
x1 = 0.9755 | – | 1367.8 ± 1.6 | – | – | –
x1 = 0.985 | 1391 ± 1.6 | 1366.2 ± 1.6 | – | – | –
x1 = 0.9871 | – | – | 1344.3 ± 1.6 | 1321.5 ± 1.6 | 1302.4 ± 1.6
x1 = 1 | 1386.4 ± 1.6 | 1364.2 ± 1.6 | 1342 ± 1.6 | 1321.2 ± 1.6 | 1300.4 ± 1.6
